Results reported in paper PMC7220823 (Chemistry (Weinheim an der Bergstrasse, Germany), 2020).

Experiments:
[1] = parent nucleosides, from previous publications; cited from earlier work
[2] = target: DncV (Vibrio cholerae serotype O1, UniProt Q9KVG7); experiment: DncV-mediated CDN synthesis, kinetics by HPLC; assay type: biochemical
[3] = target: rocR (Pseudomonas aeruginosa, UniProt Q9HX69); experiment: rocR-mediated CDN hydrolysis monitored by HPLC; assay type: biochemical, P. aeruginosa; details: 100 nM rocR, 10 μM CDN
rocR, sequence (Q9HX69 whole entry): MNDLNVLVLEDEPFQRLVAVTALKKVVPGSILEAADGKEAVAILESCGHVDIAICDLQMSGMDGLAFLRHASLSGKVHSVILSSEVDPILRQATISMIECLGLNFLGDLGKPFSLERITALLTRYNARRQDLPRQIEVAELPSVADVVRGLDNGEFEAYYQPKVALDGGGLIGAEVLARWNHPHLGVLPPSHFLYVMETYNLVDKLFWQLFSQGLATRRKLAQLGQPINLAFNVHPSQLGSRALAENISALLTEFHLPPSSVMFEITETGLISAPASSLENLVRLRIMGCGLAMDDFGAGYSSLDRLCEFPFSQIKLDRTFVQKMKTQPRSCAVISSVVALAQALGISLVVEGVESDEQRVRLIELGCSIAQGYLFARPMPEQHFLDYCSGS

[4] = 500 μM NTP, 37 °C, HPLC, CIAP-quenched, mean ± SD

DncV, sequence (Q9KVG7 whole entry): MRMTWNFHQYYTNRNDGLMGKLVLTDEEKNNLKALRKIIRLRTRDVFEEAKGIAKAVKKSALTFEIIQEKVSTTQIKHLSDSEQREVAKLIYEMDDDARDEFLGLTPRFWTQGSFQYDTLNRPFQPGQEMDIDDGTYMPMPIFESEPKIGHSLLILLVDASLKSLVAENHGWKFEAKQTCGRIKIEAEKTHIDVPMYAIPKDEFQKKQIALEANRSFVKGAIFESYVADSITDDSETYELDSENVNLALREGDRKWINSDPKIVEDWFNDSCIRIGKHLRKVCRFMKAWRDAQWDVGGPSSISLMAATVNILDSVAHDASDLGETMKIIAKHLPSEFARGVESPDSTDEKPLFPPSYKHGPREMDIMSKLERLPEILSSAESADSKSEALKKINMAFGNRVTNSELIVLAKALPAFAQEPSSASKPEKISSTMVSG

Row | Structure (SMILES) | ε [1] [M⁻¹ cm⁻¹] | λabs^max [1] [nm] | λem^max [1] [nm] | ϕ (emission quantum yield) [1] | ϕε [1] | k1 (formation of first phosphodiester linkage, S to I1) [2, 4] | k2 (cyclization of intermediate I1 to product CDN) [2, 4] | k3 (degradation of intermediate pppNpN to pNpN) [2, 4] | k2/k3 ([2]; product formation versus degradation of the intermediate) | time to complete cleavage by rocR [3] [min] | k1 (enzyme/substrate association) ([3]; mean ± SD) [M⁻¹ s⁻¹] | k2 (cleavage reaction) ([3]; mean ± SD) [s⁻¹] | k−1 (enzyme/substrate dissociation) ([3]; mean ± SD) [s⁻¹]
1 | Nc1nc2c([C@@H]3O[C@H](CO)[C@@H](O)[C@H]3O)snc2c(=O)[nH]1 [^tzG] | 4870 | 333 | 459 | 2.5×10^−1 | 1203 |  |  |  |  |  |  |  | 
2 | Nc1nc2c(ncn2[C@@H]2O[C@@H]3COP(=O)(O)O[C@H]4[C@@H](O)[C@H](n5cnc6c(=O)[nH]c(N)nc65)O[C@@H]4COP(=O)(O)O[C@H]3[C@H]2O)c(=O)[nH]1 [c-di-GMP] |  |  |  |  |  | (7.1 ±2.3) ×10^−6 μM^−1s^−1 | (7.4±2.1) ×10^−2 s^−1 | (6.4±0.3) ×10^−4 s^−1 | 116 | ~3 | 3.96e+06 ± 70000 | 0.76 ± 0.03 | 1.15 ± 0.21
